{
  "source": "patent US12171768B2",
  "about": "“IRAK4 degraders and uses thereof” (priority 2021, dated 2024)",
  "key": {"[1]": {"test": "Excretion study in bile duct-cannulated (BDC) rats", "format": "in vivo"}, "[2]": {"tested_on": "MSU-crystal induced inflammation", "test": "Mouse air pouch model of MSU-crystal induced (TLR 2/4-dependent) inflammation", "format": "in vivo", "conditions": "3 days twice daily, 30 to 100 mg/kg"}, "CYP3A4": {"biological_target": "CYP3A4 (Homo sapiens, UniProt P08684)", "sequence (P08684 whole entry)": "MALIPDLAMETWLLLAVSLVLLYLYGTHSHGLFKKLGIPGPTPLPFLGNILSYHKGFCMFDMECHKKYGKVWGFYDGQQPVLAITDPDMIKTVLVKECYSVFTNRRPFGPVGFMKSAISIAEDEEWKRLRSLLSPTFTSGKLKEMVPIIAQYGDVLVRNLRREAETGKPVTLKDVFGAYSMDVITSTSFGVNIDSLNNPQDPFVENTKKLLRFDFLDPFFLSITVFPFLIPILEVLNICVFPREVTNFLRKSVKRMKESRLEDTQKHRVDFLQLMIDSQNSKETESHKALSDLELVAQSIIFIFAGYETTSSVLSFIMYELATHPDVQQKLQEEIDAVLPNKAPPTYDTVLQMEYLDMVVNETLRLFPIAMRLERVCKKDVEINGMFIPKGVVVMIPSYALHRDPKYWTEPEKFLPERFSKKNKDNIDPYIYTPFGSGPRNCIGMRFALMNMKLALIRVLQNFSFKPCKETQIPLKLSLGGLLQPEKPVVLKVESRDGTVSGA", "test": "In vitro drug-drug interaction study, CYP3A4", "format": "in vitro ADME"}, "[3]": {"test": "Distribution studies in rats", "format": "in vivo"}, "[4]": {"test": "Phase 1 SAD safety and tolerability", "format": "in vivo, human", "experimental": "The safety data up to 24-hours post-dose for these sentinel HVs will be reviewed by the Investigator to ensure acceptable tolerability before commencing administration of the investigational product to the remaining HVs in the cohort. Sequential dosing of HVs within a cohort will be staggered so that there will be at least a gap of 10 minutes between dosing of individual HVs. After the completion of each dose level, the blinded interim PK data through Day 5 and safety data through Day 14 will be reviewed by the SRC before proceeding to the next dose level. Each subsequent dose administration will be performed, if in the judgment of the Investigator and Safety Physician, the results of the safety analyses of the preceding dose administration are satisfactory.\nAll data will be fully listed."}, "[5]": {"biological_target": "T1, breast cancer resistance protein (BCRP) (Homo sapiens, UniProt Q9UNQ0)", "T1 sequence (Q9UNQ0 1-655)": "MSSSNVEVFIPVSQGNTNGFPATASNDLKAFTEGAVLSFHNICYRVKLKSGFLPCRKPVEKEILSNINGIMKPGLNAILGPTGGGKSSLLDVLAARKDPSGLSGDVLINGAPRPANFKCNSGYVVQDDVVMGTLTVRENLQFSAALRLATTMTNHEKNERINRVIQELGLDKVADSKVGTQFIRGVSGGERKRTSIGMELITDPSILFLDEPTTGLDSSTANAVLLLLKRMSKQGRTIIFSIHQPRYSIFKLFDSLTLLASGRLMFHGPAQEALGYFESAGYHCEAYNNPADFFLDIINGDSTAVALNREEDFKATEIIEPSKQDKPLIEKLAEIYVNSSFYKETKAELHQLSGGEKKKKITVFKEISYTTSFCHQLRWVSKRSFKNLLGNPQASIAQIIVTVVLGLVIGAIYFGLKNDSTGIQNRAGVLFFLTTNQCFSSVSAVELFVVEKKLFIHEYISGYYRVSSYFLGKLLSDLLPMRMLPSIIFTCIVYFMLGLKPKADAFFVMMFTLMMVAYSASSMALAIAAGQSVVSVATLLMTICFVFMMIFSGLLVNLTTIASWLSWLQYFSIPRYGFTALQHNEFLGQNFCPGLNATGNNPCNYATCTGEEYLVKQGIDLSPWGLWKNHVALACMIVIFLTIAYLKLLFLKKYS", "test": "BCRP substrate and efflux inhibition in vitro", "format": "in vitro ADME"}, "[6]": {"conditions": "blinded SAD safety, per Investigator assessment"}},
  "note": "Entries after “also recorded” stand apart in the source; their conditions may differ.",
  "data": [
    {"smiles": "Cn1c(=O)n([C@@H]2CCC(=O)NC2=O)c2cccc(C#CCOC3CCN(C[C@H]4CC[C@H](n5cc(NC(=O)c6cnn7ccc(N8C[C@H]9C[C@@H]8CO9)nc67)c(C(F)F)n5)CC4)CC3)c21", "note": "[Compound A, 5-((1R,4R)-2-oxa-5-azabicyclo[2.2.1]heptan-5-yl)-N-(3-(difluoromethyl)-1-((1r,4R)-4-((4-((3-(1-(2,6-dioxopiperidin-3-yl)-3-methyl-2-oxo-2,3-dihydro-1H-benzo[d]imidazol-4-yl)prop-2-yn-1-yl)oxy)piperidin-1-yl)methyl)cyclohexyl)-1H-pyrazol-4-yl)pyrazolo[1,5-a]pyrimidine-3-carboxamide]", "values": [
      {"measurement": "Biliary and intestinal excretion as parent drug", "setting": "[1]", "value": "minor to moderate"},
      {"measurement": "Renal clearance", "setting": "[1]", "value": "negligible"},
      {"measurement": "IRAK4 levels in the spleen", "setting": "[2]", "value": "significantly reduced"},
      {"measurement": "Inflammatory exudate, including neutrophils and IL-1β", "setting": "[2]", "value": "significantly reduced"},
      {"measurement": "Inhibition of CYP3A4", "setting": "CYP3A4", "value": "potential time dependent inhibition"},
      {"measurement": "Penetration into the central nervous system (CNS)", "setting": "[3]", "value": "limited penetration"},
      {"measurement": "Tissue distribution", "setting": "[3]", "value": "extensively distributed into tissues"},
      {"measurement": "ECG changes", "setting": "[4]; SAD", "value": "No significant ECG changes"},
      {"measurement": "QTcF prolongation", "setting": "[4]; SAD", "value": "no clinically significant QTcF prolongation"},
      {"measurement": "Serious adverse events", "setting": "[4]; SAD", "value": "no serious adverse events; also recorded: No SAEs"},
      {"measurement": "AST elevation", "setting": "[4]; SAD 5, n=1, resolution ~Day 21", "value": 3.8, "unit": "× ULN"},
      {"measurement": "ALT elevation", "setting": "[4]; SAD 5, n=1, slow resolution to baseline", "value": 2.5, "unit": "× ULN"},
      {"measurement": "Study treatment related AEs, Abdominal pain, #AEs", "setting": "[4]; [6]", "value": 1},
      {"measurement": "Study treatment related AEs, Diarrhea, #AEs", "setting": "[4]; [6]", "value": 2},
      {"measurement": "Study treatment related AEs, Diarrhea, (subjects)", "setting": "[4]; [6]", "value": "(2)"},
      {"measurement": "Study treatment related AEs, Headache, #AEs", "setting": "[4]; [6]", "value": 5},
      {"measurement": "Study treatment related AEs, Headache, (subjects)", "setting": "[4]; [6]", "value": "(4)"},
      {"measurement": "Study treatment related AEs, Muscle weakness, #AEs", "setting": "[4]; [6]", "value": 1},
      {"measurement": "Study treatment related AEs, Myalgia, #AEs", "setting": "[4]; [6]", "value": 1},
      {"measurement": "Study treatment related AEs, Nausea, #AEs", "setting": "[4]; [6]", "value": 3},
      {"measurement": "Study treatment related AEs, Nausea, (subjects)", "setting": "[4]; [6]", "value": "(3)"},
      {"measurement": "Study treatment related AEs, Palpitations, #AEs", "setting": "[4]; [6]", "value": 1},
      {"measurement": "Study treatment related AEs, Vomiting, #AEs", "setting": "[4]; [6]", "value": 2},
      {"measurement": "Study treatment related AEs, Vomiting, (subjects)", "setting": "[4]; [6]", "value": "(1)"},
      {"measurement": "Safety and tolerability", "setting": "[4]; single doses, SAD", "value": "safe and well-tolerated"},
      {"measurement": "BCRP efflux inhibition", "setting": "[5]", "value": "inhibited BCRP efflux"},
      {"measurement": "BCRP substrate", "setting": "[5]", "value": "substrate"}
    ]}
  ]
}
